Assay results: ChEMBL document CHEMBL4339191 (J Med Chem, 2019); call rule not given here
Residue numbers refer to the chain shown, from its start.

Columns and labels:
[1] = target: T1, Aldo-keto reductase family 1 member C1 (Homo sapiens, UniProt Q04828); assay: Inhibition of recombinant human AKR1C1 expressed in Escherichia coli BL21 […] at 100 uM using S-tetralol as substrate in presence of NADP+ by UV-spectrophotometric method relative to control
T1 sequence (Q04828 whole entry): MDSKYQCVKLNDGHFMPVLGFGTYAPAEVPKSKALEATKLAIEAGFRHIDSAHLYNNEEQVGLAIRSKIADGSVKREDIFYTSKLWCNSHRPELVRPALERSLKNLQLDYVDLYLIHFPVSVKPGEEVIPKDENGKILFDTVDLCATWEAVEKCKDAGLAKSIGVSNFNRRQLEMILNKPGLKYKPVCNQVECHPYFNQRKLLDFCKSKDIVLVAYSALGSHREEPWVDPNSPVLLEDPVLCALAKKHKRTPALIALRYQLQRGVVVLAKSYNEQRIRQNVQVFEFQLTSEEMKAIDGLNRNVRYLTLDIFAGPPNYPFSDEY

AKR1C1 = target: T2, AKR1C1 (Homo sapiens, UniProt Q04828); assay: in vitro; conditions: probe S-tetralol
T2 sequence (Q04828 whole entry): T1 sequence (Q04828 whole entry)
Description: Inhibition of recombinant human AKR1C1 expressed in Escherichia coli BL21 (D3) at 200 uM using S-tetralol as substrate in presence of NADP+ by UV-spectrophotometric method relative to control

AKR1C2 = target: T3, AKR1C2 (Homo sapiens, UniProt P52895); assay: in vitro; conditions: probe S-tetralol
T3 sequence (P52895 whole entry): T1 sequence (Q04828 whole entry) with T38V, R47H, L54V, C87S, V151M, R170H, Q172L
Description: Inhibition of recombinant human AKR1C2 expressed in Escherichia coli BL21 (D3) at 200 uM using S-tetralol as substrate in presence of NADP+ by UV-spectrophotometric method relative to control

[2] = target: T4, Aldo-keto reductase family 1 member C3 (Homo sapiens, UniProt P42330)
T4 sequence (P42330 whole entry): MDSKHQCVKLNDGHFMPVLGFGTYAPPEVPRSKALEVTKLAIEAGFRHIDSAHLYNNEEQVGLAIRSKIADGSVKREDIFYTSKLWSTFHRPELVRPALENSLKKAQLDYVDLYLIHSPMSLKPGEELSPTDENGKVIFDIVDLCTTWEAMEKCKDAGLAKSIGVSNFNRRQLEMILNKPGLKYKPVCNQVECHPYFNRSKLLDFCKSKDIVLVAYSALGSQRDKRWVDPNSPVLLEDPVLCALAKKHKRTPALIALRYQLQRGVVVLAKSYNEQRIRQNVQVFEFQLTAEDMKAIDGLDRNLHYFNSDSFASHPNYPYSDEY
Description: Inhibition of recombinant full-length human N-terminal His6-tagged AKR1C3 expressed in Escherichia coli BL21 (DE3) using phenanthrenequinone as substrate in presence of NADPH generating system

Compound: CC(C)=CCc1cc(/C=C/C(=O)O)cc(C(=O)NCc2ccc(N(C)C)cc2)c1
- inhibition (INH) [1]: Not Active

Compound: CC(C)=CCc1cc(/C=C/C(=O)O)cc(C(=O)NCc2cccc(OC(F)(F)F)c2)c1
- inhibition at 200 µM (AKR1C1): 10.6%

Compound: CC(C)=CCc1cc(/C=C/C(=O)O)cc(C(=O)NCc2ccc(C)cc2)c1
- inhibition at 200 µM (AKR1C2): 66.5%

Compound: CC/C=C\C[C@H]1C(=O)CC[C@@H]1CC(=O)O [JASMONIC ACID]
- Ki [2]: 24 µM

Compound: COc1ccc(CNC(=O)c2cc(/C=C/C(=O)O)cc(CC=C(C)C)c2)cc1
- inhibition (INH) [1]: Not Active
